# Test results reported in patent US7994326B2 (Northwestern University, priority 2003, dated 2011).
# Like-named read-outs stand apart in the source and are kept apart here.
# Key:
# Format in all cases: biochemical
# murine iNOS = target: T1, murine iNOS (Mus musculus, UniProt P29477); assay: NOS enzyme inhibitory assay (hemoglobin capture), iNOS; conditions: for IC50: murine iNOS, 10 μM L-arginine
# T1 construct: made in house; host or cells: E. coli (plasmid pCWiNOS)
# Procedure, shortened: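 Recombinant murine iNOS, overexpressed in E. coli from plasmid pCWiNOS (induced with 1 mM IPTG) and purified on a 2′,5′-ADP-Sepharose 4B column with elution by 10 mM 2′(3′)-AMP, 10 μM BH4 and 0.3 M NaCl, was used to test inhibitors. Nitric oxide production was followed with the hemoglobin capture assay, and IC50 values were determined.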
# rat nNOS = target: T2, rat nNOS (Rattus norvegicus, UniProt P29476); assay: NOS enzyme inhibitory assay (hemoglobin capture), nNOS; conditions: for IC50: rat nNOS, 10 μM L-arginine
# T2 construct: made in house; host or cells: E. coli (plasmid pCWnNOS)
# Procedure, shortened: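 Recombinant rat nNOS expressed in E. coli and purified by calmodulin-Sepharose and 2′,5′-ADP-Sepharose chromatography. NO production followed by hemoglobin capture; inhibition expressed as Ki, selectivity as ratio of Ki values.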
# bovine eNOS = target: T3, bovine eNOS (Bos taurus, UniProt P29473); assay: NOS enzyme inhibitory assay (hemoglobin capture), eNOS; conditions: for IC50: bovine eNOS, 10 μM L-arginine, * = no inhibition observed up to the concentration listed
# T3 construct: made in house; host or cells: E. coli (plasmid Bov-eNOSpCW)
# [1] = Table 1b, ratio of Ki values eNOS/nNOS
# [2] = Table 1b, ratio of Ki values iNOS/nNOS
# [3] = Table 1a, apparent Ki calculated from IC50, Km […], read-out: calc. Ki iNOS
# [4] = Table 1a, apparent Ki calculated from IC50, Km […], read-out: calc. Ki nNOS
# [5] = Table 1a, apparent Ki calculated from IC50, Km 1.7 μM, read-out: calc. Ki eNOS
SMILES,"Ki (murine iNOS; Table 1b, read-out: Ki iNOS) [µM]",Selectivity n/e (rat nNOS; [1]),Selectivity n/i (rat nNOS; [2]),"Ki (rat nNOS; Table 1b, read-out: Ki nNOS) [nM]","Ki (bovine eNOS; Table 1b, read-out: Ki eNOS) [µM]",Ki (murine iNOS; [3]) [µM],IC50 (murine iNOS; Table 1a) [µM],"Selectivity n/e (rat nNOS; Table 1a, Ki(eNOS)/Ki(nNOS))","Selectivity n/i (rat nNOS; Table 1a, Ki(iNOS)/Ki(nNOS))",Ki (rat nNOS; [4]) [nM],IC50 (rat nNOS; Table 1a) [µM],Ki (bovine eNOS; [5]) [µM],IC50 (bovine eNOS; Table 1a) [mM]
Cc1cc(N)nc(C[C@H]2CNC[C@@H]2NCCNCc2ccc(Cl)cc2Cl)c1.Cl.Cl.Cl.Cl (racemic) [Compound P-66],44.2,158,91.6,483,76.1,,,,,,,,
Cc1cc(N)nc(CC2CNCC2NCCNCc2cccc(C(F)(F)F)c2)c1.Cl.Cl.Cl.Cl (racemic) [Compound P-52],13.6,563.6,65.8,206,116,,,,,,,,
Nc1cccc(CC2CNCC2NC2CCN(Cc3ccccc3)C2)n1 (racemic) [Compound P-21],,,,,,286,630,6.99,11.70,24400,212,171,1.17
Cc1cc(N)nc(C[C@H]2CNC[C@H]2NCCN)c1.Cl.Cl.Cl.Cl (racemic) [Compound P-46],,,,,,5.5,12.1,2462.2,58,95,0.83,234,1.61
Nc1cccc(CC2CNCC2NCC(N)Cc2ccccc2)n1 (racemic) [Compound P-17],,,,,,417,919,>70.64,20.25,20600,179,> 1450,> 10
Cc1cc(N)nc(CC2CNCC2NCCNCCc2ccc(F)cc2)c1.Cl.Cl.Cl.Cl (racemic) [Compound P-70],4.6,656.2,170.3,27,17.7,,,,,,,,
Nc1cccc(CC2CNCC2NC2CCN(Cc3ccccc3)C2)n1 (racemic) [Compound P-22],,,,,,209,461,6.07,11.66,17900,156,109,0.748
Cc1cc(N)nc(C[C@H]2CNC[C@@H]2NCCNCc2ccc(F)cc2)c1.Cl.Cl.Cl.Cl (racemic) [Compound P-57],27.4,90.1,31.3,870,78.8,,,,,,,,
CN(C)CCNC1CNCC1Cc1cccc(N)n1 (racemic) [Compound P-30],,,,,,195,429,42.02,58.45,3330,29,140,0.963
Cc1cc(N)nc(C[C@H]2CNC[C@H]2NCCNCc2ccc(F)cc2)c1.Cl.Cl.Cl.Cl (racemic) [Compound P-51],7.97,904.5,55.4,144,130,,,,,,,,
Nc1cccc(C[C@H]2CNC[C@@H]2NCCNCc2ccccc2)n1 (racemic) [Compound P-18],,,,,,166,366,>703.88,11.49,14400,126,,> 70
Cl.Cl.Cl.Nc1cccc(C[C@H]2CNC[C@H]2NCCCc2ccccc2)n1 (racemic) [Compound P-27],,,,,,166,366,27.9,52.43,3170,27.5,88.5,0.609
Cc1cc(N)nc(CC2CNCC2NCC(C)NCc2ccc(Cl)cc2)c1.Cl.Cl.Cl.Cl (racemic) [Compound P-68],20.5,28,34.7,589,16.5,,,,,,,,
Nc1cccc(CC2CNCC2NC2CCNC2)n1 (racemic) [Compound P-19],,,,,,253,559,22.00,12.11,20900,182,460,3.17
Cl.Cl.Nc1cccc(CC2CNCC2O)n1 (racemic) [Compound P-11],,,,,,25.2,56,49.11,3.64,6940,60.3,341,2.35
Cc1cc(N)nc(C[C@H]2CNC[C@H]2NCCNCc2ccc(C(F)(F)F)cc2)c1.Cl.Cl.Cl.Cl (racemic) [Compound P-50],14.1,428.4,71.5,197,84.4,,,,,,,,
Cc1cc(N)nc(C[C@H]2CNC[C@@H]2NCCNCCc2ccc(F)cc2)c1.Cl.Cl.Cl.Cl (racemic) [Compound P-72],22.6,370.5,189.9,119,44.1,,,,,,,,
